# Data: patent US20200068890A1 (Person to Whom the Inventor is Obligated to Assign, priority 2017, published 2020)
# System: T1, A. thaliana DHDPS
# T1 construct: AtDHDPS|10|0.00008; no borders, domain or tags given
# Assay: DHDPS-DHDPR coupled assay, dose response inhibitor assay
# Assay type: biochemical, Arabidopsis thaliana
# Method: DHDPS enzyme activity was determined using the coupled assay in a Cary 4000 UV/Vis spectrophotometer at 340 nm in 1 cm acrylic cuvettes. A master mix was prepared for each reaction as per Table 1. Reaction mixtures containing enzymes, pyruvate, buffer and NADPH were incubated at 30° C. for 12 mins before the addition of ASA to initiate the reaction. The oxidation of NADPH to NADP^+ was then monitored at 340 nm at 30° C. as a function of time. The initial rate (ΔA340·min^−1) was calculated from the slope of the linear portion of the A340 versus time profile. All experiments were carried out in triplicate. The enzyme kinetic parameters, including KM values, were determined using the Michaelis-Menten equation (Equation 1). Unless otherwise stated, all kinetic data were fitted using the built-in equations in GraphPad Prism.
# To determine/C50 values for the inhibitors, A. thaliana DHDPS enzyme activity was measured using the coupled assay (detailed above) in the presence of increasing concentrations of inhibitor. The initial rate was then plotted as a function of the log 10 of the inhibitor concentration and the/C50 determined according to Equation 2.
row,Compound,IC50 [µM]
1,"COc1ccc(/C=C2\SC(=O)N(CC(=O)O)C2=O)c(OC)c1 [Compound 17, (Z)-2-(5-(2,4-Dimethoxybenzylidene)-2,4-dioxothiazolidin-3-yl)acetic Acid]",173
2,"Nc1ccc(/C=C2\SC(=O)N(CC(=O)O)C2=O)cc1 [Compound 11, (Z)-2-(5-(4-Aminobenzylidene)-2,4-dioxothiazolidin-3-yl)acetic Acid]",153
3,"COc1ccc(/C=C2\SC(=O)N(CCC(=O)O)C2=O)cc1 [Compound 50, (Z)-3-(5-(4-Methoxybenzylidene)-2,4-dioxothiazolidin-3-yl)propanoic Acid]",> 250
4,"O=C(O)CN1C(=O)S/C(=C\c2ccc(Cl)cc2)C1=O [Compound 8, (Z)-2-(5-(4-Chlorobenzylidene)-2,4-dioxothiazolidin-3-yl)acetic Acid]",84.3
5,"O=C(O)CN1C(=O)S/C(=C\c2ccc(O)c(Cl)c2)C1=O [Compound 13, (Z)-2-(5-(3-Chloro-4-hydroxybenzylidene)-2,4-dioxothiazolidin-3-yl)acetic Acid]",316
6,"COc1ccc(/C=C2\NC(=S)NC2=O)cc1 [Compound 47, (Z)-5-(4-Methoxybenzylidene)-2-thioxoimidazolidin-4-one]",323
7,"O=C(O)CN1C(=O)S/C(=C\c2cccc(Cl)c2)C1=O [Compound 7, (Z)-2-(5-(3-Chlorobenzylidene)-2,4-dioxothiazolidin-3-yl)acetic Acid]",121
8,"COc1cccc(/C=C2\SC(=O)N(CC(=O)O)C2=O)c1O [Compound 16, (Z)-2-(5-(2-Hydroxy-3-methoxybenzylidene)-2,4-dioxothiazolidin-3-yl)acetic Acid]",127
9,"O=C(O)CN1C(=O)S/C(=C\c2cccc3ccccc23)C1=O [Compound 38, (Z)-2-(5-(Naphthalen-1-ylmethylene)-2,4-dioxothiazolidin-3-yl)acetic Acid]",97
10,"COc1ccc(/C=C2\SC(=S)NC2=O)cc1 [Compound 46, (Z)-5-(4-Methoxybenzylidene)-2-thioxothiazolidin-4-one]",> 250
11,"CN(C)c1ccc(/C=C2\SC(=O)N(CC(=O)O)C2=O)cc1 [Compound 33, (Z)-2-(5-(4-(Dimethylamino)benzylidene)-2,4-dioxothiazolidin-3-yl)acetic Acid]",> 500
12,"COc1ccc(/C=C2\NC(=S)N(CC(=O)O)C2=O)cc1 [Compound 44, (Z)-2-(4-(4-Methoxybenzylidene)-5-oxo-2-thioxoimidazolidin-1-yl)acetic Acid]",222
13,"O=C(O)CN1C(=O)S/C(=C\c2ccccc2)C1=O [Compound 2, (Z)-2-(5-Benzylidene-2,4-dioxothiazolidin-3-yl)acetic Acid]",80.1
14,"O=C(O)CN1C(=O)S/C(=C\c2c[nH]cn2)C1=O [Compound 32, (Z)-2-(5-((1H-Imidazol-4-yl)methylene)-2,4-dioxothiazolidin-3-yl)acetic Acid]",94
15,"COc1cccc(/C=C2\SC(=O)N(CC(=O)O)C2=O)c1OC [Compound 22, 2-(5-(2,3-Dimethoxybenzylidene)-2,4-dioxothiazolidin-3-yl) acetic Acid]",108
16,COc1ccc(CC2SC(=O)N(CC(=O)O)C2=O)cc1 (stereo not shown) [Compound 52],> 250
17,"O=C(O)CN1C(=O)S/C(=C\c2ccc(O)cc2O)C1=O [Compound 21, 2-(5-(2,4-Dihydroxybenzylidene)-2,4-dioxothiazolidin-3-yl)acetic Acid]",162
18,"O=C(O)CN1C(=O)S/C(=C\c2ccccc2O)C1=O [Compound 14, (Z)-2-(5-(2-Hydroxybenzylidene)-2,4-dioxothiazolidin-3-yl)acetic Acid]",79.7
19,"O=C(O)CN1C(=O)S/C(=C\c2ccsc2)C1=O [Compound 31, (Z)-2-(2,4-Dioxo-5-(thiophen-3-ylmethylene)thiazolidin-3-yl)acetic Acid]",81.8
20,"O=C(O)CN1C(=O)S/C(=C\c2ccc(Br)cc2)C1=O [Compound 9, (Z)-2-(5-(4-Bromobenzylidene)-2,4-dioxothiazolidin-3-yl)acetic Acid]",74
21,"COc1ccc(/C=C2\SC(=S)N(CC(=O)O)C2=O)cc1 [Compound 43, (Z)-2-(5-(4-Methoxybenzylidene)-4-oxo-2-thioxothiazolidin-3-yl)acetic Acid]",540
22,"COc1ccc(/C=C2\SC(=O)N(CC(=O)O)C2=O)cn1 [Compound 37, (Z)-2-(5-((6-Methoxypyridin-3-yl)methylene)-2,4-dioxothiazolidin-3-yl)acetic Acid]",46
23,"CC(=O)Nc1ccc(/C=C2\SC(=O)N(CC(=O)O)C2=O)cc1 [Compound 20, (Z)-2-(5-(4-Acetamidobenzylidene)-2,4-dioxothiazolidin-3-yl)acetic Acid]",68.4

row,Compound,IC50 [µM]
1,"COc1ccc(/C=C2\SC(=N)NC2=O)cc1 [Compound 48, (Z)-2-Imino-5-(4-methoxybenzylidene)thiazolidin-4-one]",156
2,"CCOc1ccc(/C=C2\SC(=O)N(CC(=O)O)C2=O)cc1 [Compound 26, (Z)-2-(5-(4-Ethoxybenzylidene)-2,4-dioxothiazolidin-3-yl)acetic Acid]",71.6
3,"CSc1ccc(/C=C2\SC(=O)N(CC(=O)O)C2=O)cc1 [Compound 28, (Z)-2-(5-(4-(Methylthio)benzylidene)-2,4-dioxothiazolidin-3-yl)acetic Acid]",125
4,"COc1ccc(/C=C2\SC(=O)N(Cc3nnn[nH]3)C2=O)cc1 [Compound 49, (Z)-3-((1H-Tetrazol-5-yl)methyl)-5-(4-methoxybenzylidene)thiazolidine-2,4-dione]",89.1
5,"O=C(O)CN1C(=O)S/C(=C\c2ccc(C(F)(F)F)cc2)C1=O [Compound 29, (Z)-2-(2,4-Dioxo-5-(4-(trifluoromethyl)benzylidene)thiazolidin-3-yl)acetic Acid]",122
6,"O=C(O)CN1C(=O)S/C(=C\c2cccs2)C1=O [Compound 30, (Z)-2-(2,4-Dioxo-5-(thiophen-2-ylmethylene)thiazolidin-3-yl)acetic Acid]",71.6
7,"O=C(O)CN1C(=O)S/C(=C\c2ccncc2)C1=O [Compound 36, (Z)-2-(2,4-Dioxo-5-(pyridin-4-ylmethylene)thiazolidin-3-yl)acetic Acid]",90.2
8,"COc1ccc(/C=C2\SC(=O)NC2=O)cc1 [Compound 45, (Z)-5-(4-Methoxybenzylidene)thiazolidine-2,4-dione]",70.8
9,"O=C(O)CN1C(=O)S/C(=C\c2ccccn2)C1=O [Compound 34, (Z)-2-(2,4-Dioxo-5-(pyridin-2-ylmethylene)thiazolidin-3-yl)acetic Acid]",80.4
10,"Cc1ccc(/C=C2\SC(=O)N(CC(=O)O)C2=O)cc1 [Compound 10, (Z)-2-(5-(4-Methylbenzylidene)-2,4-dioxothiazolidin-3-yl)acetic Acid]",80.1
11,"O=C(O)CN1C(=O)S/C(=C\c2cc([N+](=O)[O-])ccc2O)C1=O [Compound 15, (Z)-2-(5-(2-Hydroxy-5-nitrobenzylidene)-2,4-dioxothiazolidin-3-yl)acetic Acid]",152
12,"O=C(O)CN1C(=O)S/C(=C\c2ccccc2Cl)C1=O [Compound 6, (Z)-2-(5-(2-Chlorobenzylidene)-2,4-dioxothiazolidin-3-yl)acetic Acid]",137
13,"N#Cc1ccc(/C=C2\SC(=O)N(CC(=O)O)C2=O)cc1 [Compound 24, (Z)-2-(5-(4-Cyanobenzylidene)-2,4-dioxothiazolidin-3-yl)acetic Acid]",79.6
14,O=C(O)CN1C(=O)S/C(=C\c2ccc(OCc3ccccc3)cc2)C1=O [Compound 41],71.4
15,"O=C1NC(=O)/C(=C/c2ccccc2O)S1 [Compound 19, (Z)-5-(2-Hydroxybenzylidene)thiazolidine-2,4-dione]",125
16,"O=C(O)CN1C(=O)S/C(=C\c2ccc3ccccc3c2)C1=O [Compound 39, (Z)-2-(5-(Naphthalen-2-ylmethylene)-2,4-dioxothiazolidin-3-yl)acetic Acid]",76.1
17,"COc1ccc(/C=C2\SC(=O)N(CC(=O)O)C2=O)cc1OC [Compound 23, 2-(5-(3,4-Dimethoxybenzylidene)-2,4-dioxothiazolidin-3-yl)acetic Acid]",116
18,"O=C(O)CN1C(=O)S/C(=C\c2ccc3ccccc3n2)C1=O [Compound 40, 2-(2,4-Dioxo-5-(quinolin-2-ylmethylene)thiazolidin-3-yl)acetic Acid]",110
19,"O=C(O)CN1C(=O)S/C(=C\c2cccnc2)C1=O [Compound 35, (Z)-2-(2,4-Dioxo-5-(pyridin-3-ylmethylene)thiazolidin-3-yl)acetic Acid]",138
20,"O=C(O)CN1C(=O)S/C(=C\c2ccc(OC(F)(F)F)cc2)C1=O [Compound 27, (Z)-2-(2,4-Dioxo-5-(4-(trifluoromethoxy)benzylidene)thiazolidin-3-yl)acetic Acid]",97.8
21,"O=C(O)CN1C(=O)S/C(=C\c2ccc(C(=O)O)cc2)C1=O [Compound 25, (Z)-4-((3-(Carboxymethyl)-2,4-dioxothiazolidin-5-ylidene)methyl)benzoic Acid]",69.8
22,"COc1ccc(/C=C2\SC(=O)N(CCCC(=O)O)C2=O)cc1 [Compound 51, (Z)-4-(5-(4-Methoxybenzylidene)-2,4-dioxothiazolidin-3-yl)butanoic Acid]",66.8
23,"COc1cccc(/C=C2\SC(=O)N(CC(=O)O)C2=O)c1 [Compound 4, (Z)-2-(5-(3-Methoxybenzylidene)-2,4-dioxothiazolidin-3-yl)acetic Acid]",110
